# Reference: ChEMBL document CHEMBL1201862, “PubChem BioAssay data set” (2004)
#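 Test compounds were applied to cells in 96-well plates for 48 hours at 5 doses. GI50 = concentration required for 50% inhibition of growth.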 The source made the active and inactive calls. Cut-off read from the data, not from the text of the source: active = GI50 up to about 1.1 µM and inactive = higher.
# Legend:
# Assay in all cases: DTP human tumour cell line panel, 48 h
# [1] = system: SK-MEL-28
# [2] = system: NCI/ADR-RES
# [3] = system: ACHN
# [4] = system: OVCAR-3
# [5] = system: UACC-62
# [6] = system: NCI-H460
# [7] = system: U-251
# [8] = system: SK-OV-3
# [9] = system: PC-3
# [10] = system: SN12C
# [11] = system: NCI-H226
# [12] = system: HCC 2998
# [13] = system: 786-0
# [14] = system: K562
# [15] = system: NCI-H522
# [16] = system: EKVX
# [17] = system: CAKI-1
# [18] = system: DU-145
# [19] = system: MCF7
# [20] = system: SF-539
# [21] = system: Malme-3M
# [22] = system: SNB-75
# [23] = system: SR
# [24] = system: MOLT-4
# [25] = system: RXF 393
# [26] = system: SNB-19
# [27] = system: SK-MEL-2
# [28] = system: OVCAR-5
# [29] = system: RPMI-8226
# [30] = system: KM12
# [31] = system: MDA-MB-435
# [32] = system: SF-268
# [33] = system: M14
# [34] = system: HOP-62
# [35] = system: HT-29
# [36] = system: NCI-H23
# [37] = system: COLO 205
# [38] = system: T47D
# [39] = system: HOP-92
# [40] = system: MDA-N
# [41] = system: SF-295
# [42] = system: A549
# [43] = system: MDA-MB-231
# [44] = system: OVCAR-8
# [45] = system: UACC-257
# [46] = system: TK-10
# [47] = system: UO-31
# [48] = system: BT-549
# [49] = system: SW-620
# [50] = system: IGROV-1
# [51] = system: Hs-578T
# [52] = system: SK-MEL-5
# [53] = system: HCT-15
# [54] = system: CCRF-CEM
# [55] = system: HCT-116
# [56] = system: OVCAR-4
# [57] = system: HL-60
smiles,measurement,setting,value
Cc1ccc(/N=C2\C(=N/c3ccc(C)cc3)N(c3ccc(C)cc3)C(=S)N2C(=O)c2ccccc2)cc1,GI50,[1],> 100 µM (inactive)
same,GI50,[2],> 100 µM (inactive)
same,GI50,[3],> 100 µM (inactive)
same,GI50,[4],> 100 µM (inactive)
same,GI50,[5],> 100 µM (inactive)
same,GI50,[6],> 100 µM (inactive)
same,GI50,[7],> 100 µM (inactive)
same,GI50,[8],> 100 µM (inactive)
same,GI50,[9],> 100 µM (inactive)
same,GI50,[10],> 100 µM (inactive)
same,GI50,[11],> 100 µM (inactive)
same,GI50,[12],> 100 µM (inactive)
same,GI50,[13],> 100 µM (inactive)
same,GI50,[14],> 100 µM (inactive)
same,GI50,[15],43.8 µM (inactive)
same,GI50,[16],> 100 µM (inactive)
same,GI50,[17],> 100 µM (inactive)
same,GI50,[18],> 100 µM (inactive)
same,GI50,[19],> 100 µM (inactive)
same,GI50,[20],> 100 µM (inactive)
same,GI50,[21],> 100 µM (inactive)
same,GI50,[22],17.5 µM (inactive)
same,GI50,[23],> 100 µM (inactive)
same,GI50,[24],> 100 µM (inactive)
same,GI50,[25],46.8 µM (inactive)
same,GI50,[26],> 100 µM (inactive)
same,GI50,[27],> 100 µM (inactive)
same,GI50,[28],> 100 µM (inactive)
same,GI50,[29],> 100 µM (inactive)
same,GI50,[30],> 100 µM (inactive)
same,GI50,[31],> 100 µM (inactive)
same,GI50,[32],> 100 µM (inactive)
same,GI50,[33],> 100 µM (inactive)
same,GI50,[34],> 100 µM (inactive)
same,GI50,[35],> 100 µM (inactive)
same,GI50,[36],> 100 µM (inactive)
same,GI50,[37],> 100 µM (inactive)
same,GI50,[38],> 100 µM (inactive)
same,GI50,[39],> 100 µM (inactive)
same,GI50,[40],> 100 µM (inactive)
same,GI50,[41],18.3 µM (inactive)
same,GI50,[42],> 100 µM (inactive)
same,GI50,[43],> 100 µM (inactive)
same,GI50,[44],> 10 µM (inactive)
same,GI50,[45],> 10 µM (inactive)
same,GI50,[46],> 100 µM (inactive)
same,GI50,[47],> 100 µM (inactive)
same,GI50,[48],> 100 µM (inactive)
same,GI50,[49],> 100 µM (inactive)
same,GI50,[50],> 100 µM (inactive)
same,GI50,[51],> 100 µM (inactive)
same,GI50,[52],> 100 µM (inactive)
same,GI50,[53],> 100 µM
O=S(=O)(O)c1ccc2c(/N=N/c3ccc(/N=N/c4ccccc4)cc3)c(O)c(S(=O)(=O)O)cc2c1,GI50,[1],> 100 µM (inactive)
same,GI50,[2],> 100 µM (inactive)
same,GI50,[3],> 100 µM (inactive)
same,GI50,[4],> 100 µM (inactive)
same,GI50,[5],> 100 µM (inactive)
same,GI50,[6],> 100 µM (inactive)
same,GI50,[7],> 100 µM (inactive)
same,GI50,[8],> 100 µM (inactive)
same,GI50,[9],> 100 µM (inactive)
same,GI50,[10],> 100 µM (inactive)
same,GI50,[11],> 100 µM (inactive)
same,GI50,[12],> 100 µM (inactive)
same,GI50,[13],> 100 µM (inactive)
same,GI50,[14],> 100 µM (inactive)
same,GI50,[15],> 100 µM (inactive)
same,GI50,[16],> 100 µM (inactive)
same,GI50,[17],> 100 µM (inactive)
same,GI50,[18],> 100 µM (inactive)
same,GI50,[54],> 100 µM (inactive)
same,GI50,[19],> 100 µM (inactive)
same,GI50,[20],> 100 µM (inactive)
same,GI50,[21],> 100 µM (inactive)
same,GI50,[55],50.1 µM (inactive)
same,GI50,[23],> 100 µM (inactive)
same,GI50,[24],> 100 µM (inactive)
same,GI50,[25],> 100 µM (inactive)
same,GI50,[26],> 100 µM (inactive)
same,GI50,[27],> 100 µM (inactive)
same,GI50,[28],> 100 µM (inactive)
same,GI50,[29],> 100 µM (inactive)
same,GI50,[30],> 100 µM (inactive)
same,GI50,[31],> 100 µM (inactive)
same,GI50,[32],> 100 µM (inactive)
same,GI50,[33],> 100 µM (inactive)
same,GI50,[34],> 100 µM (inactive)
same,GI50,[35],> 100 µM (inactive)
same,GI50,[36],> 100 µM (inactive)
same,GI50,[37],> 100 µM (inactive)
same,GI50,[38],> 100 µM (inactive)
same,GI50,[39],> 100 µM (inactive)
same,GI50,[40],> 100 µM (inactive)
same,GI50,[56],> 100 µM (inactive)
same,GI50,[41],> 100 µM (inactive)
same,GI50,[42],> 100 µM (inactive)
same,GI50,[43],> 100 µM (inactive)
same,GI50,[44],> 100 µM (inactive)
same,GI50,[45],> 100 µM (inactive)
same,GI50,[57],> 100 µM (inactive)
same,GI50,[46],> 100 µM (inactive)
same,GI50,[47],> 100 µM (inactive)
same,GI50,[48],> 100 µM (inactive)
same,GI50,[49],> 100 µM (inactive)
same,GI50,[50],> 100 µM (inactive)
same,GI50,[51],> 100 µM (inactive)
same,GI50,[52],> 100 µM (inactive)
same,GI50,[53],> 100 µM
